# Assay results published in paper PMC8661056, “Synthesis and Evaluation of [^11C]7-Halogen-2-Phenyl Isoindolone Derivatives: Potential PET Radioligands for in vivo Imaging of 5-HT2C Receptors” (Frontiers in Neuroscience, 2021).
# How the values were obtained:
# 5-HT2CR [1] = test system: 5-HT2CR; set-up: method as in Zeng et al., 2018; conditions: rhesus monkeys; ref Zeng et al., 2018; cited from earlier work
# [2] = lipophilicity, octanol/phosphate buffer partition; format: physicochemical; conditions: pH 7.4, read-out: log P7.4
# Protocol: [^11C]6 and [^11C]9 were prepared via O-methylation of 10 and 11 with [^11C]CH3I in the presence of 0.1 M Bu4NOH in DMF followed by HPLC purification, respectively. [^11C]6 and [^11C]9 were obtained in an average radiochemical yield of 37–44 ± 4% (n = 10, decay corrected) with ≥97% radiochemical and chemical purity. The total synthesis time was 50 ± 5 min end of bombardment and the specific activity were in the range of 0.5–1.2 Ci/μmol at time of injection. The lipophilicities of 6 and 9 (octanol/phosphate buffer partition) were measured. The log P7.4 values of [^11C]6 and [^11C]9 are 2.81 and 2.89, respectively, which are in the optimal range (1.0–3.0) for compounds expected to enter the brain readily.
# 5-HT2CR [3] = target: T1, 5-HT2CR (Rattus norvegicus, UniProt P08909); assay: microPET/CT brain imaging in rats; format: in vivo, Sprague–Dawley rats; conditions: for effect of pretreatment with SB-242084 on uptake: 0.1 mg/kg SB-242084 prior to injection; for ratio of uptake in choroid plexus to cerebellum, peak / ratio of uptake in hippocampus to cerebellum, peak: i.v., baseline, from time-activity curves
# T1 construct: from tissue; host or cells: brain of living Sprague–Dawley rats (choroid plexus, hippocampus)
# T1 sequence (P08909 33-460): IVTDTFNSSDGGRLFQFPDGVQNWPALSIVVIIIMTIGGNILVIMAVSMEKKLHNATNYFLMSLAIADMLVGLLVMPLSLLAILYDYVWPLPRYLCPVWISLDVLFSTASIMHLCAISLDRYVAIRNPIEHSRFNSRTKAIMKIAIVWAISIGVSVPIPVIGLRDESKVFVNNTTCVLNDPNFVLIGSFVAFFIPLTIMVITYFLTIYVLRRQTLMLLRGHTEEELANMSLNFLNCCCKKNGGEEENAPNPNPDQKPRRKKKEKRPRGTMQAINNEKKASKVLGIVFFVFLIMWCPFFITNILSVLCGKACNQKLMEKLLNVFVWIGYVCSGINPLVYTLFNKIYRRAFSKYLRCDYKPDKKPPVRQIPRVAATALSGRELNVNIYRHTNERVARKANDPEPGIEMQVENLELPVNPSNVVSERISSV
# Protocol: [^11C]6 and [^11C]9 were intravenously administered to Sprague–Dawley rats and brain images were acquired with a Siemens Inveon microPET/CT imaging system, respectively (Figure 2).
# FIGURE 2 PET analysis of [^11C]6 and [^11C]9 in Sprague–Dawley rats. (A) Summed images of [^11C]6 PET/CT data from 10 to 120 min p.i. at baseline. Orange arrows depict choroid plexus; Blue arrows depict hippocampus. (B) Summed images of [^11C]6 PET/CT data from 10 to 120 min p.i. after pretreatment with 0.1 mg/kg of SB-242084. (C) Mean (n = 3) time-activity curves for brain regions of interest of [^11C]6 at baseline with standard error. (D) Mean (n = 3) time-activity curves for brain regions of interest of [^11C]6 after pretreatment with 0.1 mg/kg of SB-242084 with standard error. (E) Mean (n = 3) time-activity curves for brain regions of interest of [^11C]9 at baseline with standard error. (F) Mean (n = 3) time-activity curves for brain regions of interest of [^11C]9 after pretreatment with 0.1 mg/kg of SB-242084 with standard error.
# 5-HT2CR [4] = assay: microPET brain imaging in rhesus monkeys; format: in vivo; conditions: rhesus monkey; for effect of pretreatment with SB-242084 on uptake in choroid plexus and hippocampus: target 0.1 mg/kg SB-242084 30 min prior to injection (soluble dose likely much less)
# From the text: [^11C]6 and [^11C]9 were further evaluated in rhesus monkeys using a Siemens MicroPET Focus 220 scanner (Figure 3). […] Ratios of uptake in choroid plexus, hippocampus, amygdala, frontal cortex to that in cerebellum peaked at 2.7, 1.6, 1.3, and 1.1, respectively.
# FIGURE 3 PET-MRI analysis of [^11C]6 and [^11C]9 in rhesus monkey. (A) MicroPET images of [^11C]6 (left) and corresponding fused PET/MRI images summed over all time at baseline. (B) MicroPET images [^11C]6 (left) and corresponding fused PET/MRI images summed over all time after pretreatment with 0.1 mg/kg of SB-242084. (C) Time-activity curves of [^11C]6 for brain regions of interest at baseline study. (D) Time-activity curves of [^11C]6 for brain regions after pretreatment with SB-242084. (E) Time-activity curves of [^11C]9 for brain regions of interest at baseline study. (F) Time-activity curves of [^11C]9 for brain regions after pretreatment with SB-242084.
# To test specific binding of [^11C]6 and [^11C]9 to the choroid plexus and hippocampus, an in vivo microPET blocking study was performed with 0.1 mg/kg SB-242084 30 min prior to injection, respectively. Unfortunately, due to the unexpected low solubility of SB-242084 in the injection form (10% ethanol in saline), the administered SB-242084 in soluble form to the monkeys was likely much less than the target 0.1 mg/kg. As a result, the uptake of [^11C]6 and [^11C]9 in the choroid plexus and hippocampus was still present.
# 5-HT2CR [5] = test system: 5-HT2CR; set-up: method as in Neelamegam et al., 2014; conditions: PET imaging; ref Neelamegam et al., 2014; cited from earlier work
Compound,logD [2],effect of pretreatment with SB-242084 on uptake (5-HT2CR [3]),"ratio of uptake in choroid plexus to cerebellum, peak (5-HT2CR [3])","ratio of uptake in hippocampus to cerebellum, peak (5-HT2CR [3])",blood-brain barrier penetration (5-HT2CR [4]),SUV in choroid plexus (peak uptake) (5-HT2CR [4]; baseline),SUV in hippocampus (5-HT2CR [4]; baseline),"ratio of uptake in choroid plexus to cerebellum, peak (5-HT2CR [4]; baseline)","ratio of uptake in hippocampus to cerebellum, peak (5-HT2CR [4]; baseline)",effect of pretreatment with SB-242084 on uptake in choroid plexus and hippocampus (5-HT2CR [4]),non-specific binding in baboon brains (5-HT2CR [5]),other results
"Cc1ccc2c(C(=O)Nc3ccc(Oc4cccnc4C)nc3)c[nH]c2c1 [[^11C]5, 6-methyl-N-[6-[(2-methyl-3-pyridinyl)oxy]-3-pyridinyl]1H-indole-3-carboxamide]",,,,,,,,,,,,level of specific binding in the choroid plexus (5-HT2CR [1]): high; overall brain uptake and retention (5-HT2CR [1]): low
"CC1CCN(CCOc2cc(N3Cc4cccc(Cl)c4C3=O)ccc2O[11CH3])CC1 [[^11C]6, [^11C]7-Chloro-2-[4-methoxy-3-[2-(4-methylpiperidin-1-yl)ethoxy]phenyl]isoindolin-1-one]",2.81,reduction of radioactivity uptake in choroid plexus and hippocampus to the same level as of the cerebellum,1.8,1.2,excellent,5.6,4.6,2.7,1.6,a reduction in the uptake and faster washout,,"ratio of uptake in amygdala to cerebellum, peak (5-HT2CR [4]; baseline): 1.3; ratio of uptake in frontal cortex to cerebellum, peak (5-HT2CR [4]; baseline): 1.1; time of peak radioactivity uptake in choroid plexus (5-HT2CR [4]; baseline, after injection): 20 to 30 min; time of peak uptakes in hippocampus, amygdala, frontal cortex and cerebellum (5-HT2CR [4]; baseline, postinjection): 9.5 to 18.5 min"
"CC1CCN(CCOc2cc(N3Cc4cccc(I)c4C3=O)ccc2O[11CH3])CC1 [[^11C]9, [^11C]7-iodo-2-[4-methoxy-3-[2-(4-methylpiperidin-1-yl)ethoxy]phenyl]isoindolin-1-one]",2.89,reduction of radioactivity uptake in choroid plexus and hippocampus to the same level as of the cerebellum,1.9,1.3,excellent,2.01,1.46,3.7,2.7,a reduction in the uptake and faster washout,,"time of peak uptake in choroid plexus and hippocampus (5-HT2CR [4]; baseline, after injection): 25 to 55 min"
c1cc2c3c(c1)[C@H]1CCC[C@H]1CN3CCN[11CH2]2 [[^11C]Vabicaserin],,,,,,,,,,,high,
c1cc2c3c(c1)[C@H]1CCC[C@H]1N3CCN[11CH2]2 [[^11C]WAY-163909],,,,,,,,,,,high,
